Measured values taken from patent US9017725B2, “Topical drug delivery systems for ophthalmic use” (Aurinia Pharmaceuticals Inc., priority 2009, dated 2015).
In brackets after ≈: the same amount, converted by molar mass.

Assay: Aqueous solubility and solubility in mixed nanomicellar formulation
Format: physicochemical
Conditions: for solubility: mixed nanomicellar formulation, aqueous with cosolvent or surfactant or cyclodextrin
Method: The ethanolic solution was evaporated under vacuum to get a thin film near-solid matter. Deionized water, 25 mL, was added to the thin film near-solid matter and sonicated for approximately 20 min to ensure complete formation of mixed micelles. The prepared 2× formulation was stored at room temperature.

SMILES: C[C@@H]1C[C@H]2[C@@H]3CCC4=CC(=O)C=C[C@]4(C)[C@@]3(F)[C@@H](O)C[C@]2(C)[C@@]1(O)C(=O)CO [dexamethasone]
- improvement of solubility (mixed nanomicellar formulation versus aqueous solubility): about 6.2 fold
- solubility: 1000 µg/mL (≈ 2.55 mM)

SMILES: CO[C@H]1C[C@@H]2CC[C@@H](C)[C@@](O)(O2)C(=O)C(=O)N2CCCC[C@H]2C(=O)O[C@H]([C@H](C)C[C@@H]2CC[C@@H](O)[C@H](OC)C2)CC(=O)[C@H](C)/C=C(\C)[C@@H](O)[C@@H](OC)C(=O)[C@H](C)C[C@H](C)/C=C/C=C/C=C/1C [rapamycin]
- improvement of solubility (mixed nanomicellar formulation (4 mg/mL) versus aqueous solubility): up to 2000 fold
- solubility: 4000 µg/mL (≈ 4.38 mM)
